“Also recorded” adds a separate entry of the source.
Tests used:
[1] = system: Caki-1 human renal carcinoma; assay: Caki-1 renal tumour xenograft in SCID mice, SEQ ID NO:1 and interleukin-2; format: in vivo; details: Example 10; SEQ ID NO:1 10 mg/kg/48 hours i.v.; IL2 20000 or 5000 unit 2 times per day i.p.
Method: Cell line: Human renal carcinoma cell line (Caki-1) was grown as monolayer culture in Minimum essential medium (α-MEM) supplemented with 10% fetal bovine serum (FBS), 0.1 mM non-essential amino acid, 1.0 mM sodium pyruvate, 100 U/ml penicillin, 100 μg/ml streptomycin and 0.25 μg/ml amphotericin B and 2 mM L-alanyl-1-glutamine at 37° C. in an atmosphere of 5% CO2 in air. The tumour cells were routinely subcultured twice weekly by trypsin-EDTA treatment. The cells were harvested from subconfluent logarithmically growing culture by treatment with trypsin-EDTA and counted for tumour inoculation.
Tumour Inoculation: An acclimation period of at least 7 days was allowed between animal receipt and commencement of tumour inoculation. […]
Groups and treatments: The following treatments were evaluated in this experiment: • 1. […]
Tumour sizes were measured every week day from day 7 after the tumour cell inoculation in two dimensions using a caliper, and the volume was expressed in mm^3 using the formula: V=0.5 a×b^2, where a and b are the long and short diameters of the tumour, respectively. Mean tumour volumes calculated from each measurement were then plotted in a standard graph to compare the anti-tumour efficacy to that of controls. A day after the last treatment, tumours were excised from the animals and their weights were measured.

Human Liver Carcinoma = assay: Tumour growth assay, human liver carcinoma in CD-1 nude mice; format: in vivo
Human Cervical Carcinoma = assay: Tumour growth assay, human cervical carcinoma in SCID mice; format: in vivo
Erythroleukemia = assay: Survival assay, erythroleukemia in mice; format: in vivo, murine
Method: For the study of the effect of the compositions on leukaemias, the animals are grafted with a particular number of cells, and the anti-tumour activity is determined by the increase in the survival time of the treated mice relative to the controls.

Hela S3 cells = assay: Relative colony forming efficiency, lipofectin +/- oligonucleotide 4 hours; format: cell-based, human; details: Hela S3 cervix carcinoma cells; averages of 2-8 determinations
Procedure, shortened: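 Survival is given as percent of lipofectin-treated controls, scored as methylene blue-stained colonies after 7–10 days of regrowth. Beforehand, HeLa S3 cultures received a 4 h lipofectin-mediated pulse of oligonucleotide, normally at 0.2 μM.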

A549 lung cell carcinoma = assay: Relative colony forming efficiency (Example 17, Table 13); format: cell-based, human; details: averages of 2-8 determinations
Procedure, shortened: (§1)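 Antisense phosphorothioates are tested at 0.2 μM unless stated, transfected with DOTMA/DOPE (2.5 μg) for four hours. Colony counts after methylene blue staining give percent inhibition versus vehicle-lipid controls.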

[2] = system: HCT116 colon cell carcinoma; assay: as above; format: cell-based, human; details: averages of 2-8 determinations
Procedure, shortened: as §1

[3] = system: HepG2 hepatocellular carcinoma; assay: as above; format: cell-based, human; details: averages of 2-8 determinations
Procedure, shortened: as §1

[4] = system: MDA PaCa-2 pancreatic cell carcinoma; assay: as above; format: cell-based, human; details: MIA PaCa-2 pancreatic cell carcinoma; averages of 2-8 determinations
Procedure, shortened: as §1

[5] = system: MDA-MB-231 breast cell adenocarcinoma; assay: as above; format: cell-based, human; details: averages of 2-8 determinations
Procedure, shortened: as §1

[6] = system: PC-3 prostrate cell adenocarcinoma; assay: as above; format: cell-based, human; details: averages of 2-8 determinations
Procedure, shortened: as §1

[7] = system: T-47D breast ductal carcinoma; assay: as above; format: cell-based, human; details: averages of 2-8 determinations
Procedure, shortened: as §1

[8] = system: T24 bladder cell carcinoma; assay: as above; format: cell-based, human; details: averages of 2-8 determinations
Procedure, shortened: as §1

[9] = Human Cervical Carcinoma^2 (second entry), SCID mice, Day 17 after tumour implantation

Q: How did the “anti-tumour efficacy (tumour volume, tumour weight)” value [1] turn out when “GGCTAAATCGCTCCACCAAG (chemistry not given here) [SEQ ID NO: 1, antisense oligonucleotide that hybridizes to the coding region of human ribonucleotide reductase R2 mRNA]” was run?
A: anti-tumour efficacy as monotherapies; also recorded: superior to both high and low dose IL-2 therapy

Q: And the “Inhibition of tumour weight” value (Human Liver Carcinoma)?
A: approximately 65%

Q: And the “Inhibition of tumour weight” value (Human Cervical Carcinoma; Human Cervical Carcinoma^2 (first entry))?
A: approximately 90%

Q: And the “Inhibition of tumour size” value (Human Cervical Carcinoma; [9])?
A: approximately 60% in SCID mice on

Q: And the “Inhibition of tumour weight” value (Human Cervical Carcinoma; [9])?
A: approximately 60% in SCID mice on

Q: What about the “effect of treatment on survival” value (Erythroleukemia; Erythroleukemia) of the same sequence?
A: Treatment prolonged survival

Q: And the “survival of treated mice” value (Erythroleukemia; untreated died within 36 days, one treated mouse died at day 22)?
A: Treated mice survived beyond day 71

Q: What about the “Reduced relative colony forming efficiency, Hela S3 (% inhibition of colony forming ability)” value (Hela S3 cells) of the same sequence?
A: 67.92%

Q: And the “Reduced relative colony forming efficiency, A549 (% inhibition of colony forming ability)” value (A549 lung cell carcinoma)?
A: 95.14%

Q: And the “Reduced relative colony forming efficiency, HCT116 (% inhibition of colony forming ability)” value [2]?
A: 70.46%

Q: And the “Reduced relative colony forming efficiency, HepG2 (% inhibition of colony forming ability)” value [3]?
A: 75.89%

Q: And the “Reduced relative colony forming efficiency, MIA PaCa-2 (% inhibition of colony forming ability)” value [4]?
A: 75.62%

Q: What about the “Reduced relative colony forming efficiency, MDA-MB-231 (% inhibition of colony forming ability)” value [5] of the same sequence?
A: 90.21%

Q: And the “Reduced relative colony forming efficiency, PC-3 (% inhibition of colony forming ability)” value [6]?
A: 83.23%

Q: And the “Reduced relative colony forming efficiency, T-47D (% inhibition of colony forming ability)” value [7]?
A: 66.12%

Q: And the “Reduced relative colony forming efficiency, T24 (% inhibition of colony forming ability)” value [8]?
A: 76.79%

Reference: patent US20080311126A1, “Antisense Oligonucleotides Directed to Ribonucleotide Reducatase R2 and Uses Thereof in Combination Therapies for the Treatment of Cancer” (Genesense Technologies, Inc, priority 2004, published 2008)
